One molecule from patent US9914698B2, “Stearoyl amino acid salt and preparation method and application thereof” (Shanghai Jiaotong University School of Medicine, priority 2014, dated 2018) can be followed below.

Series [1] relates to gerbil model with global ischemia reperfusion injury. The experiment in a line: Neurobehavioral scores of acute cerebral ischemia reperfusion model. Type of series: in vivo. To be noted: ischemic model group 3.1+/−0.32. An excerpt:
(§1) Taking N-stearoyl amino acid potassium NsTyr-2K as an example, a gerbil model with global ischemia reperfusion injury was used to assess the protective role of NsTyr-2K against neurobehavioral disorder caused by cerebral ischemia-reperfusion injury by examining the changing behavioral indexes such as spatial, learning and cognitive functions in the perspective of overall animals during passive dark avoidance test and Morris water maze test.

The nature of another series: Acute toxicity test. To be noted: mouse, in vivo; oral, Kunming mice. An excerpt:
(§2) After oral administration of NsTyr-2K, the mice were weighed. […] However, their weight followed up rapidly as food intake recovered.
(§3) After 15-day administration of NsTyr-2K, the mouse organs (brain, heart, lung, liver and kidney) were studied to see if there was any change.
(§4) This means that mouse brain tissues had not been severely damaged under such dose, and that NsTyr-2K had high safety. Even so, it is necessary to conduct further long-term safety assessment of any possible side effect of NsTyr-2K on liver and hear in the following medicinal research and to precisely determine the amount of administration required.

Another series relates to Kunming mice. In words: Acute toxicity test. To be noted: mouse, in vivo.
Excerpt: as §2, §3, §4

Series [2] has as its system gerbil model with global ischemia reperfusion injury. The experiment in a line: Dark avoidance test. Type of series: in vivo. To be noted: compared with the ischemia group; NsTyr-2K 15, 30, 60 mg/kg; nimotop positive control.
Excerpt: as §1
Dark avoidance test was used to evaluate the effects of NsTyr-2K influence on animal learning and memory abilities.

Consider `CCCCCCCCCCCCCCCCCC(=O)N[C@@H](Cc1ccc(O)cc1)C(=O)[O-].[K+]` [NsTyr-2K, N-stearoyl tyrosine potassium salt], for which the neurobehavioral score in series [1] (15 mg/kg) is listed as 1.76+/−0.48. Also, in series [1] (30 mg/kg), the neurobehavioral score is recorded as 1.25+/−0.31. In the series “Acute toxicity test”, this molecule came in with a 50% lethal dose (LD50) at 15 days above 2000 mg/kg. In the series on Kunming mice, the behavioral abnormality entry was “no evidence of behavioral abnormality except loss of appetite and weight”; the organ coefficient result was “exerted certain influence upon mouse brain, heart and liver coefficients”. Besides, in series [2], the “error counts within 5 min” value is “much fewer error counts within 5 min” and the latency entry is listed as “much prolonged latency”.
